According to ChEMBL document CHEMBL4270599, “Synthesis of a 3'-C-ethynyl-β-d-ribofuranose purine nucleoside library: Discovery of C7-deazapurine analogs as potent antiproliferative nucleosides” (Eur J Med Chem, 2018):

Experiments:
Assay type in all cases: functional
SK-MEL-5 = test: Growth inhibition of human SK-MEL-5 cells assessed as cell growth at 10^-7 M incubated for 48 hrs by sulforhodamine B assay relative to control; details: SK-MEL-5, 48 h, read-out: Activity
K562 = test: Growth inhibition of human K562 cells assessed as cell growth at 10^-8 M incubated for 48 hrs by sulforhodamine B assay relative to control; details: K562, 48 h, read-out: Activity
COLO 205 = test: Growth inhibition of human COLO205 cells assessed as cell growth at 10^-7 M incubated for 48 hrs by sulforhodamine B assay relative to control; details: COLO 205, 48 h, read-out: Activity
ACHN [1] = test: Cytotoxicity against human ACHN cells after 48 hrs by SRB assay; details: for CC50: read-out: pLC50 (the source's name) (converted)
786-0 = test: Cytotoxicity against human 786-0 cells after 48 hrs by SRB assay; details: 786-0, 48 h; for GI50: read-out: GI50; for TGI: read-out: TGI
HCT-116 [2] = test: Growth inhibition of human HCT116 cells assessed as cell growth at 10^-4 M incubated for 48 hrs by sulforhodamine B assay relative to control; details: HCT-116, 48 h, read-out: Activity
SK-OV-3 = test: Growth inhibition of human SKOV3 cells assessed as cell growth at 10^-7 M incubated for 48 hrs by sulforhodamine B assay relative to control; details: SK-OV-3, 48 h, read-out: Activity
SR = test: Growth inhibition of human SR cells assessed as cell growth at 10^-7 M incubated for 48 hrs by sulforhodamine B assay relative to control; details: read-out: Activity
OVCAR-5 [3] = test: Cytotoxicity against human OVCAR5 cells after 48 hrs by SRB assay; details: OVCAR-5, 48 h; for GI50: read-out: GI50; for TGI: read-out: TGI
OVCAR-3 [4] = test: Growth inhibition of human OVCAR3 cells assessed as cell growth at 10^-6 M incubated for 48 hrs by sulforhodamine B assay relative to control; details: OVCAR-3, 48 h, read-out: Activity
RPMI-8226 = test: Growth inhibition of human RPMI8226 cells assessed as cell growth at 10^-7 M incubated for 48 hrs by sulforhodamine B assay relative to control; details: RPMI-8226, 48 h, read-out: Activity
U-251 = test: Growth inhibition of human U251 cells assessed as cell growth at 10^-8 M incubated for 48 hrs by sulforhodamine B assay relative to control; details: U-251, 48 h, read-out: Activity
HCT-116 [5] = test: Growth inhibition of human HCT116 cells assessed as cell growth at 10^-5 M incubated for 48 hrs by sulforhodamine B assay relative to control; details: HCT-116, 48 h, read-out: Activity
HT-29 [6] = test: Growth inhibition of human HT-29 cells assessed as cell growth at 10^-7 M incubated for 48 hrs by sulforhodamine B assay relative to control; details: HT-29, 48 h, read-out: Activity
OVCAR-5 [7] = test: Growth inhibition of human OVCAR5 cells assessed as cell growth at 10^-7 M incubated for 48 hrs by sulforhodamine B assay relative to control; details: OVCAR-5, 48 h, read-out: Activity
M14 = test: Growth inhibition of human M14 cells assessed as cell growth at 10^-8 M incubated for 48 hrs by sulforhodamine B assay relative to control; details: M14, 48 h, read-out: Activity
HCT-116 [8] = test: Cytotoxicity against human HCT116 cells after 48 hrs by SRB assay; details: HCT-116, 48 h; for GI50: read-out: GI50
SF-268 = test: Growth inhibition of human SF268 cells assessed as cell growth at 10^-5 M incubated for 48 hrs by sulforhodamine B assay relative to control; details: SF-268, 48 h, read-out: Activity
HT-29 [9] = test: Cytotoxicity against human HT-29 cells after 48 hrs by SRB assay; details: HT-29, 48 h; for GI50: read-out: GI50; for CC50: read-out: LC50 (the source's name)
MDA-MB-435 = test: Growth inhibition of human MDA-MB-435 cells assessed as cell growth at 10^-8 M incubated for 48 hrs by sulforhodamine B assay relative to control; details: MDA-MB-435, 48 h, read-out: Activity
OVCAR-3 [10] = test: Growth inhibition of human OVCAR3 cells assessed as cell growth at 10^-8 M incubated for 48 hrs by sulforhodamine B assay relative to control; details: OVCAR-3, 48 h, read-out: Activity
HCT-116 [11] = test: Growth inhibition of human HCT116 cells assessed as cell growth at 10^-8 M incubated for 48 hrs by sulforhodamine B assay relative to control; details: HCT-116, 48 h, read-out: Activity
ACHN [12] = test: Growth inhibition of human ACHN cells assessed as cell growth at 10^-5 M incubated for 48 hrs by sulforhodamine B assay relative to control; details: read-out: Activity
OVCAR-3 [13] = test: Cytotoxicity against human OVCAR3 cells after 48 hrs by SRB assay; details: OVCAR-3, 48 h; for GI50: read-out: GI50; for TGI: read-out: TGI
RXF 393 = test: Growth inhibition of human RXF393 cells assessed as cell growth at 10^-8 M incubated for 48 hrs by sulforhodamine B assay relative to control; details: RXF 393, 48 h, read-out: Activity
HCT-15 = test: Growth inhibition of human HCT15 cells assessed as cell growth at 10^-5 M incubated for 48 hrs by sulforhodamine B assay relative to control; details: HCT-15, 48 h, read-out: Activity
SNB-75 = test: Growth inhibition of human SNB75 cells assessed as cell growth at 10^-8 M incubated for 48 hrs by sulforhodamine B assay relative to control; details: SNB-75, 48 h, read-out: Activity
OVCAR-4 = test: Growth inhibition of human OVCAR4 cells assessed as cell growth at 10^-5 M incubated for 48 hrs by sulforhodamine B assay relative to control; details: OVCAR-4, 48 h, read-out: Activity
[14] = read-out: LC50 (the source's name)
[15] = read-out: pLC50 (the source's name) (converted)

Structure (SMILES)	growth at 0.1 µM (SK-MEL-5) [%]	growth at 0.01 µM (K562) [%]	growth at 0.1 µM (COLO 205) [%]	GI50 (ACHN [1]) [µM]	CC50 (ACHN [1]) [µM]	GI50 (786-0) [µM]	TGI (786-0) [µM]	growth at 100 µM (HCT-116 [2]) [%]	growth at 0.1 µM (SK-OV-3) [%]	growth at 0.1 µM (SR) [%]	GI50 (OVCAR-5 [3]) [µM]	TGI (OVCAR-5 [3]) [µM]	growth at 1 µM (OVCAR-3 [4]) [%]	growth at 0.1 µM (RPMI-8226) [%]	growth at 0.01 µM (U-251) [%]	growth at 10 µM (HCT-116 [5]) [%]	growth at 0.1 µM (HT-29 [6]) [%]	growth at 0.1 µM (OVCAR-5 [7]) [%]	growth at 0.01 µM (M14) [%]	GI50 (HCT-116 [8]) [µM]	also measured
C#C[C@@]1(O)[C@@H](CO)O[C@@H](n2cc(Cl)c3c(N)ncnc32)[C@@H]1O	55 to 69	93 to 97	43 to 69	0.219	> 100	0.308 to 0.336	1.31 to 1.34	3 to 4	56 to 72	34 to 46	0.28 to 0.644	70.8 to 100	5 to 7	64 to 65	47 to 66	4	18 to 38	72 to 102	93 to 94	0.0185 to 0.0221	LC50 (lethal concentration, 50% cell kill) (786-0; read-out: LC50): 5.21 to 5.7 µM; CC50 (OVCAR-5 [3]; [14]): > 100 µM; TGI (HCT-116 [8]; read-out: TGI): > 100 µM; CC50 (HCT-116 [8]; [15]): > 100 µM; TGI (HCT-116 [8]; read-out: pTGI (converted)): > 100 µM; growth at 10 µM (SF-268): 2 to 7%; GI50 (HT-29 [9]): 0.0322 to 0.0591 µM; CC50 (HT-29 [9]): > 100 µM; TGI (HT-29 [9]; read-out: TGI): 0.747 to 100 µM; growth at 0.01 µM (MDA-MB-435): 88 to 89%; growth at 0.01 µM (OVCAR-3 [10]): 97 to 101%; growth at 0.01 µM (HCT-116 [11]): 67 to 73%; growth at 10 µM (ACHN [12]): -30%; GI50 (OVCAR-3 [13]): 0.228 to 0.237 µM; TGI (OVCAR-3 [13]): 1.6 to 2.01 µM; CC50 (OVCAR-3 [13]; [15]): > 100 µM; growth at 0.01 µM (RXF 393): 101 to 108%; growth at 10 µM (HCT-15): 1%; growth at 0.01 µM (SNB-75): 84%
C#C[C@@]1(O)[C@@H](CO)O[C@@H](n2cc(Br)c3c(N)ncnc32)[C@@H]1O	30 to 71	87 to 99	24 to 69	0.234	> 100	0.164 to 0.351	0.593 to 1.63	3 to 5	28 to 62	20 to 46	0.257 to 1.37	56.7 to 100	15 to 17	41 to 83	57 to 87	3 to 5	10 to 35	62 to 97	92 to 94	0.0258 to 0.0292	CC50 (OVCAR-5 [3]; [15]): > 100 µM; CC50 (HCT-116 [8]; [14]): > 100 µM; TGI (HCT-116 [8]; read-out: TGI): > 100 µM; TGI (HCT-116 [8]; read-out: pTGI (converted)): > 100 µM; growth at 10 µM (SF-268): 7 to 11%; GI50 (HT-29 [9]): 0.0258 to 0.0559 µM; CC50 (HT-29 [9]): > 100 µM; TGI (HT-29 [9]; read-out: TGI): > 100 µM; TGI (HT-29 [9]; read-out: pTGI (converted)): > 100 µM; growth at 0.01 µM (MDA-MB-435): 89 to 92%; growth at 0.01 µM (OVCAR-3 [10]): 99 to 101%; growth at 0.01 µM (HCT-116 [11]): 83%; growth at 10 µM (ACHN [12]): -7%; GI50 (OVCAR-3 [13]): 0.184 to 0.252 µM; CC50 (OVCAR-3 [13]; [14]): > 100 µM; TGI (OVCAR-3 [13]): 3.01 to 4.71 µM; growth at 0.01 µM (RXF 393): 99%; growth at 10 µM (OVCAR-4): 7%; growth at 10 µM (HCT-15): 3%; growth at 0.01 µM (SNB-75): 73 to 89%
